We go through 13 molecules from ChEMBL document CHEMBL1201862, “PubChem BioAssay data set” (2004).

The structures appear in SMILES notation.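 48-hour exposure; five concentrations; linearly interpolated endpoints. Here, GI50 denotes the concentration required for 50% inhibition of growth.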 The source made the active and inactive calls. Cut-off read from the data, not from the text of the source: active = GI50 up to about 1.1 µM and inactive = higher.

Among the test systems are DMS-114; OVCAR-5; SK-MEL-2; UACC-257; KM12; LOX IMVI; HOP-62; DMS-273; M19-MEL; Malme-3M; SNB-78; COLO 205; DLD-1; K562; ACHN; SR; MDA-MB-231; MDA-N; PC-3; MCF7.
Common to all, as to experiment: NCI-60 cell line screen, 48 h

On to `CCn1c2c(c3ccccc31)C(c1ccccc1)CC1C(=O)N(c3ccccc3)C(=O)C21` (centres undefined), for which the GI50 in the assay with DMS-114 was 89.5 µM (inactive); in the assay with OVCAR-5, > 100 µM (inactive); in the assay with SK-MEL-2 it was 61 µM (inactive); in the assay on UACC-257, > 100 µM (inactive); in the assay on KM12, > 100 µM (inactive); in the assay on LOX IMVI, > 100 µM (inactive). The GI50 in the assay on HOP-62 is 87.1 µM (inactive); in the assay on DMS-273, 51.4 µM (inactive); in the assay with M19-MEL, > 100 µM (inactive); in the assay on Malme-3M it was 24 µM (inactive); with SNB-78 it was 36.8 µM (inactive); in the assay with COLO 205, > 100 µM (inactive). The figures for the GI50 in the assay on DLD-1, in the assay with K562 and with ACHN were 74 µM (inactive), 89.5 µM (inactive) and 57.5 µM (inactive), respectively.

For the molecule `CN(C(=O)C12C3C4C1C1C2C3C41C#N)C(C)(C)C` (centres undefined), the GI50 with DMS-114, in the assay with OVCAR-5, with SK-MEL-2, with UACC-257, with KM12 and in the assay with LOX IMVI was > 100 µM (inactive) each time. The GI50 in the assay with HOP-62, in the assay on DMS-273, in the assay on M19-MEL, with Malme-3M, in the assay on SNB-78 and with COLO 205 was > 100 µM (inactive) in each case. Besides, the GI50 with DLD-1, in the assay on K562 and in the assay on ACHN was > 100 µM (inactive) throughout.

In the case of `C/C(CC(=O)Nc1cccc(Cl)c1C)=N\N=C(N)N`, the GI50 in the assay on DMS-114, in the assay with OVCAR-5, with SK-MEL-2, in the assay with UACC-257, with KM12 and in the assay on LOX IMVI was > 100 µM (inactive) throughout. The GI50 was > 100 µM (inactive) in the assay with HOP-62; 97.1 µM (inactive) in the assay with DMS-273; > 100 µM (inactive) with M19-MEL; > 100 µM (inactive) in the assay with Malme-3M; > 100 µM (inactive) with SNB-78; > 100 µM (inactive) in the assay with COLO 205. For the same molecule, the GI50 is > 100 µM (inactive) in the assay with DLD-1, 24.1 µM (inactive) in the assay with K562 and > 100 µM (inactive) in the assay with ACHN.

On to `CCCC(=O)c1ccc2c(ccc(=O)n2C)c1`, for which the GI50 in the assay with DMS-114 was 31.6 µM (inactive); in the assay on OVCAR-5, > 100 µM (inactive); in the assay on SK-MEL-2, > 100 µM (inactive); in the assay on KM12 it was > 100 µM (inactive); with LOX IMVI it was > 100 µM (inactive); in the assay on HOP-62, > 100 µM (inactive). For the same molecule, the GI50 is 66.2 µM (inactive) in the assay with DMS-273; > 100 µM (inactive) in the assay on M19-MEL; > 100 µM (inactive) with Malme-3M; > 100 µM (inactive) in the assay with COLO 205; > 100 µM (inactive) with DLD-1; > 100 µM (inactive) with K562.

Take `O=C1C=C/C(=N\c2ccc3c(c2)C(Br)c2ccccc2-3)O1` (centres undefined): the GI50 in the assay on DMS-114 is 92.7 µM (inactive); in the assay on UACC-257 it was > 100 µM (inactive); in the assay on LOX IMVI, 45.6 µM (inactive); in the assay with HOP-62, > 100 µM (inactive); in the assay with DMS-273 it was > 10 µM (inactive); with M19-MEL, > 100 µM (inactive). In addition, the GI50 with Malme-3M is > 100 µM (inactive); in the assay on SNB-78, > 100 µM (inactive); in the assay with COLO 205 it was > 100 µM (inactive); in the assay with DLD-1 it was > 100 µM (inactive); in the assay on SR, 20.2 µM (inactive); in the assay with K562 it was 42.8 µM (inactive). Besides, the GI50 with ACHN is > 100 µM (inactive).

Regarding `CCOC(=O)C1C(=O)CC(=O)C2CCCCC21` (centres undefined), the GI50 in the assay on DMS-114, with OVCAR-5, with SK-MEL-2, in the assay on UACC-257, in the assay with KM12 and in the assay on LOX IMVI was > 100 µM (inactive) in each case. Further, the GI50 in the assay on HOP-62, with DMS-273, in the assay with Malme-3M, in the assay with SNB-78, in the assay with COLO 205 and in the assay with DLD-1 was > 100 µM (inactive) in each case. Besides, the GI50 in the assay on K562 and with ACHN was > 100 µM (inactive) each time.

With `CC(C)(C)c1cc(CCCCCCCC2(CCCCCCCc3cc(C(C)(C)C)cc(C(C)(C)C)c3)OC(COCCOCCCCCC#N)C(COCCOCCCCCC#N)O2)cc(C(C)(C)C)c1` (centres undefined), the GI50 in the assay with DMS-114, with OVCAR-5, with SK-MEL-2, in the assay on UACC-257, in the assay on KM12 and in the assay on LOX IMVI was > 100 µM (inactive) in each case. Also, the GI50 in the assay on HOP-62, in the assay with DMS-273, in the assay with M19-MEL, with Malme-3M, in the assay with SNB-78 and in the assay on COLO 205 was > 100 µM (inactive) in each case. In addition, the GI50 in the assay with DLD-1, in the assay on K562 and in the assay with ACHN was > 100 µM (inactive) in each case.

As to `CC(=O)O/N=C(Cl)/C(Cl)=N/OC(C)=O`, the GI50 in the assay with DMS-114, in the assay on OVCAR-5, in the assay with SK-MEL-2, in the assay with UACC-257, with KM12 and in the assay on LOX IMVI was > 100 µM (inactive) throughout. Besides, the GI50 with HOP-62, in the assay on DMS-273, with Malme-3M, in the assay on SNB-78, with DLD-1 and in the assay with SR was > 100 µM (inactive) each time. Moreover, the GI50 in the assay with K562 and with ACHN was > 100 µM (inactive) each time.

On to `CCCCCCCCCCCCCCCCCCCCCCC(=O)N[C@H]1CCc2cc(OC)c(OC)c(OC)c2-c2ccc(SC)c(=O)cc21`, for which the GI50 is > 100 µM (inactive) in the assay on OVCAR-5; 39.2 µM (inactive) in the assay with UACC-257; 35.2 µM (inactive) with KM12; 16.1 µM (inactive) in the assay with HOP-62; 27.9 µM (inactive) in the assay with DMS-273; 50 µM (inactive) with M19-MEL. Besides, the GI50 was 51.5 µM (inactive) with Malme-3M; 41.9 µM (inactive) with SNB-78; 12.8 µM (inactive) in the assay on COLO 205; 23.5 µM (inactive) with SR; 30.5 µM (inactive) with K562; 63.8 µM (inactive) in the assay on ACHN.

As for `CN1CCOC(C(NC(=O)c2ccccc2)c2ccccc2)C1=O` (centres undefined), the GI50 in the assay with OVCAR-5, in the assay on SK-MEL-2, in the assay with UACC-257, with KM12, in the assay with LOX IMVI and in the assay on HOP-62 was > 100 µM (inactive) in each case. For the same molecule, the GI50 with DMS-273, in the assay on M19-MEL, in the assay on Malme-3M, in the assay on SNB-78, in the assay on COLO 205 and with DLD-1 was > 100 µM (inactive) in each case. Moreover, the GI50 in the assay with SR, in the assay on K562 and with ACHN was > 100 µM (inactive) each time.

In the case of `NCP(=O)(O)OCC(=O)O`, the GI50 with DMS-114, in the assay on OVCAR-5, in the assay with SK-MEL-2, with UACC-257, with KM12 and in the assay with LOX IMVI was > 100 µM (inactive) in each case. The GI50 with HOP-62, in the assay with DMS-273, in the assay with Malme-3M, with SNB-78, in the assay with COLO 205 and in the assay with DLD-1 was > 100 µM (inactive) in each case. The GI50 in the assay with SR, in the assay on K562 and in the assay on ACHN was > 100 µM (inactive) each time.

In the case of `CC1=NN(C(=O)c2ccccc2O)C(=O)/C1=C/c1ccco1`, the GI50 was 0.604 µM (active) with DMS-114; 9.18 µM (inactive) with OVCAR-5; 5.02 µM (inactive) in the assay on SK-MEL-2; 8.73 µM (inactive) in the assay on UACC-257; 7.01 µM (inactive) in the assay on KM12; 2.67 µM (inactive) in the assay on LOX IMVI. The GI50 with HOP-62 is 0.497 µM (active); in the assay on M19-MEL, 1.88 µM (inactive); in the assay on MDA-MB-231 it was 15.1 µM (inactive); in the assay on Malme-3M, 11.9 µM (inactive); with SNB-78, 22.6 µM (inactive); in the assay on COLO 205, 10.5 µM (inactive). Further, the GI50 in the assay with DLD-1 was 0.502 µM (active); in the assay on MDA-N it was 0.53 µM (active); with PC-3 it was 3.04 µM (inactive); in the assay on SR, 2.94 µM (inactive); in the assay on K562, 2.64 µM (inactive); with ACHN, 2.26 µM (inactive). Moreover, the GI50 with MCF7 is 4.27 µM (inactive).

On to `O=C(N/C(=C\c1c(O)ccc2ccccc12)c1nc2ccccc2[nH]1)c1ccccc1`, for which the GI50 in the assay with DMS-114, with OVCAR-5, with SK-MEL-2, in the assay with UACC-257, with KM12 and with LOX IMVI was > 100 µM (inactive) throughout. Besides, the GI50 with HOP-62 was 25.9 µM (inactive); in the assay with DMS-273, > 100 µM (inactive); in the assay with M19-MEL it was > 100 µM (inactive); in the assay on Malme-3M, > 100 µM (inactive); in the assay on SNB-78, > 100 µM (inactive); in the assay with COLO 205 it was > 100 µM (inactive). Further, the GI50 with DLD-1, in the assay with K562 and in the assay on ACHN was > 100 µM (inactive) throughout.
